Each molecule was assayed against T1, Mcl-1/Bim interaction, recombinant human Mcl-1 (171-327) (Homo sapiens, UniProt Q07820) (assay: Cell free Mcl-1: Bim Affinity Assay (Mcl-1 HTRF)). Conditions: TR-FRET, 0.1 nM Mcl-1 (171-327), 0.05 nM biotin-Bim (51-76).
T1 construct: made in house
Assay type: binding
How it was run: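 Biotin-Bim(51-76) peptide, TR-FRET readout, overnight incubation; IC50 from duplicate competition curves, 4-parameter fit.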

T1 sequence (Q07820 171-327): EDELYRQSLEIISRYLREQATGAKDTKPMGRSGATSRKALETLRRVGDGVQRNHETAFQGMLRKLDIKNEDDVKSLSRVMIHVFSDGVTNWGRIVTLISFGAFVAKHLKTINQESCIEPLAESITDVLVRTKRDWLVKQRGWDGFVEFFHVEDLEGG

`CC[C@@H]1CC/C=C/[C@H](OCC(=O)NC(C)C)[C@@H]2CC[C@H]2CN2C[C@@]3(CCCc4cc(Cl)ccc43)COc3ccc(cc32)C(=O)NS1(=O)=O` [Example 422, 2-(((1S,3′R,6′R,7′S,8′E,12′R)-6-chloro-12′-ethyl-13′,13′-dioxido-15′-oxo-3,4-dihydro-2H-spiro[naphthalene-1,22′-[20]oxa[13]thia[1,14]diazatetracyclo[14.7.2.0^3,6.0^19,24]pentacosa [8,16,18,24]tetraen]-7′-yl)oxy)-N-(1-methylethyl)acetamide] and `COC[C@@H]1CC/C=C/[C@H](OC)[C@@H]2CC[C@H]2CN2C[C@@]3(CCCc4cc(Cl)ccc43)COc3ccc(cc32)C(=O)NS1(=O)=O` [Example 444, (1S,3′R,6′R,7′S,8′E,12′S)-6-chloro-7′-methoxy-12′-(methoxymethyl)-3,4-dihydro-2H,15′H-spiro[naphthalene-1,22′-[20]oxa[13]thia[1,14]diazatetracyclo[14.7.2.0^3,6.0^19,24]pentacosa [8,16,18,24]tetraen]-15′-one 13′,13′-dioxide] are within 1.5-fold of each other in IC50: 0.865 nM for the first, 0.785 nM for the second.

In the case of `COC[C@H]1CC/C=C/[C@H](O)[C@@H]2CC[C@H]2CN2C[C@@]3(CCCc4cc(Cl)ccc43)COc3ccc(cc32)C(=O)NS1(=O)=O` [Example 435, (1S,3′R,6′R,7′S,8′E,12′R)-6-chloro-7′-hydroxy-12′-(methoxymethyl)-3,4-dihydro-2H,15′H-spiro[naphthalene-1,22′-[20]oxa[13]thia[1,14]diazatetracyclo[14.7.2.0^3,6.0^19,24]pentacosa [8,16,18,24]tetraen]-15′-one 13′,13′-dioxide], the IC50 is reported as 2.56 nM.

Same assay, conditions: cell free Mcl-1:Bim TR-FRET, recombinant human Mcl-1 (171-327)

Compared with `O=C1NS(=O)(=O)CC/C=C/CC[C@@H]2CC[C@H]2CN2C[C@@]3(CCCc4cc(Cl)ccc43)COc3ccc1cc32` [Example 496, (1S,3′R,6′R,9′E)-6-chloro-3,4-dihydro-2H,15′H-spiro[naphthalene-1,22′-[20]oxa[13]thia[1,14]diazatetracyclo[14.7.2.0^3,6.0^19,24]pentacosa [10,16,18,24]tetraen]-15′-one 13′,13′-dioxide], `O=C1NS(=O)(=O)CC/C=C\CC[C@@H]2CC[C@H]2CN2C[C@@]3(CCCc4cc(Cl)ccc43)COc3ccc1cc32` [Example 499, (1S,3′R,6′R,9′Z)-6-chloro-3,4-dihydro-2H,15′H-spiro[naphthalene-1,22′-[20]oxa[13]thia[1,14]diazatetracyclo[14.7.2.0^3,6.0^19,24]pentacosa [9,16,18,24]tetraen]-15′-one 13′,13′-dioxide] is 3.8-fold higher in IC50: 6.33 nM for the first, 24 nM for the second.

`CC[C@@H]1CCCCC[C@H](O)[C@@H]2CC[C@H]2CN2C[C@@]3(CCCc4cc(Cl)ccc43)COc3ccc(cc32)C(=O)NS1(=O)=O` [Example 554, (1S,3′R,6′R,7′S,13′R)-6-chloro-13′-ethyl-7′-hydroxy-3,4-dihydro-2H,16′H-spiro[naphthalene-1,23′-[21]oxa[14]thia[1,15]diazatetracyclo[15.7.2.0^3,6.0^20,25]hexacosa[17,19,25]trien]-16′-one 14′,14′-dioxide] and `C[C@@H]1CCC[C@H](O)[C@@H]2CC[C@H]2CN2C[C@@]3(CCCc4cc(Cl)ccc43)COc3ccc(cc32)C(=O)NS1(=O)=O` [Example 761, (1S,3′R,6′R,7′S,11′R)-6-chloro-7′-hydroxy-11′-methyl-3,4-dihydro-2H,14′H-spiro[naphthalene-1,21′-[19]oxa[12]thia[1,13]diazatetracyclo[13.7.2.0^3,6.0^18,23]tetracosa[15,17,23]trien]-14′-one 12′,12′-dioxide] are within 1.5-fold of each other in IC50: 1.83 nM for the first, 1.78 nM for the second.

Going from `C[C@@H]1CC/C=C/[C@H](NC(=O)N(C)C)[C@@H]2CC[C@H]2CN2C[C@@]3(CCCc4cc(Cl)ccc43)COc3ccc(cc32)C(=O)NS1(=O)=O` [Example 601, 3-((1S,3′R,6′R,7′S,8′E,12′R)-6-chloro-12′-methyl-13′,13′-dioxido-15′-oxo-3,4-dihydro-2H-spiro[naphthalene-1,22′-[20]oxa[13]thia[1,14]diazatetracyclo[14.7.2.0^3,6.0^19,24]pentacosa [8,16,18,24]tetraen]-7′-yl)-1,1-dimethylurea-trifluoroacetate] to `C[C@@H]1CC/C=C/[C@H](O)[C@@H]2CC[C@H]2CN2C[C@@]3(CCc4cc(Cl)ccc43)COc3ccc(cc32)C(=O)NS1(=O)=O` [Example 698, (1S,3′R,6′R,7′S,8′E,12′R)-5-chloro-7′-hydroxy-12′-methyl-2,3-dihydro-15′H-spiro[indene-1,22′-[20]oxa[13]thia[1,14]diazatetracyclo[14.7.2.0^3,6.0^19,24]pentacosa [8,16,18,24]tetraen]-15′-one 13′,13′-dioxide], the IC50 falls from 1.33 nM to 0.679 nM (2-fold).

Compared with `C[C@@H]1CC/C=C/C(=O)[C@@H]2CC[C@H]2CN2C[C@@]3(CCCc4cc(Cl)ccc43)COc3ccc(cc32)C(=O)NS1(=O)=O` [Example 604, (1S,3′R,6′R,8′E,12′R)-6-chloro-12′-methyl-3,4-dihydro-2H,7′H,15′H-spiro[naphthalene-1,22′-[20]oxa[13]thia[1,14]diazatetracyclo[14.7.2.0^3,6.0^19,24]pentacosa [8,16,18,24]tetraene]-7′,15′-dione 13′,13′-dioxide], `CC[C@@H]1C/C=C/[C@H](O)[C@@H]2CC[C@H]2CN2C[C@@]3(CCCc4cc(Cl)ccc43)COc3ccc(cc32)C(=O)NS1(=O)=O` [Example 762, (1S,3′R,6′R,7′S,8′E,11′R)-6-chloro-7′-hydroxy-11′-ethyl-3,4-dihydro-2H,14′H-spiro[naphthalene-1,21′-[19]oxa[12]thia[1,13]diazatetracyclo[13.7.2.0^3,6.0^18,23]tetracosa[8,15,17,23]tetraen]-14′-one 12′,12′-dioxide] is 17-fold lower in IC50: 9.58 nM for the first, 0.576 nM for the second. The second is the more potent here.

Compared with `CC[C@@H]1C/C=C/[C@H](OC)[C@@H]2CC[C@H]2CN2C[C@@]3(CCCc4cc(Cl)ccc43)COc3ccc(cc32)C(=O)NS1(=O)=O` [Example 763, (1S,3′R,6′R,7′S,8′E,11′R)-6-chloro-11′-ethyl-7′-methoxy-3,4-dihydro-2H,14′H-spiro[naphthalene-1,21′-[19]oxa[12]thia[1,13]diazatetracyclo[13.7.2.0^3,6.0^18,23]tetracosa[8,15,17,23]tetraen]-14′-one 12′,12′-dioxide], `CC1(C)C/C=C/[C@H](O)[C@@H]2CC[C@H]2CN2C[C@@]3(CCCc4cc(Cl)ccc43)COc3ccc(cc32)C(=O)NS1(=O)=O` [Example 769, (1S,3′R,6′R,7′S,8′E)-6-chloro-7′-hydroxy-11′,11′-dimethyl-3,4-dihydro-2H,14′H-spiro[naphthalene-1,21′-[19]oxa[12]thia[1,13]diazatetracyclo[13.7.2.0^3,6.0^18,23]tetracosa[8,15,17,23]tetraen]-14′-one 12′,12′-dioxide] is 3-fold lower in IC50: 2.93 nM for the first, 0.971 nM for the second.

For `CC1(C)CCC[C@H](O)[C@@H]2CC[C@H]2CN2C[C@@]3(CCCc4cc(Cl)ccc43)COc3ccc(cc32)C(=O)NS1(=O)=O` [Example 770, (1S,3′R,6′R,7′S)-6-chloro-7′-hydroxy-11′,11′-dimethyl-3,4-dihydro-2H,14′H-spiro[naphthalene-1,21′-[19]oxa[12]thia[1,13]diazatetracyclo[13.7.2.0^3,6.0^18,23]tetracosa[15,17,23]trien]-14′-one 12′,12′-dioxide], the IC50 was 1.33 nM.

— patent publication US12091425B2 (AMGEN INC., priority 2016, dated 2024)
